Assay results reported in patent US20240308992A1 (Biopolar Youtang(Guangdong) Pharmaceutical Co., Ltd., priority 2021, published 2024).

target: T1, Drak2 (Homo sapiens, UniProt O94768); assay: Drak2 activity test, ADP-Glo kinase assay (Promega); format: biochemical; conditions: inhibition of Drak2 kinase activity, 2 h room temperature, activity range classes, read-out: IC50_Drak2
T1 sequence (O94768 1-372): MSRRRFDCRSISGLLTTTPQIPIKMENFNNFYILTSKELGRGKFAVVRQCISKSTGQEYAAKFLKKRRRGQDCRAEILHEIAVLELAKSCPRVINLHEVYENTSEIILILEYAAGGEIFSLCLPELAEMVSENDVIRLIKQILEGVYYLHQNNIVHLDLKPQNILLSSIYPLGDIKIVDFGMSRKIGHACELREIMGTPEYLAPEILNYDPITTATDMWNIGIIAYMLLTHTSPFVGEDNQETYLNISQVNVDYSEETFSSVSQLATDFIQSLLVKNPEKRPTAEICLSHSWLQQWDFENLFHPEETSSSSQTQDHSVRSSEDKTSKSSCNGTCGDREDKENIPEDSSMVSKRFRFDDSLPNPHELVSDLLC

Row | Structure (SMILES) | IC50
1 | COc1cc(-c2cncc(-c3cc(OCC[C@H](C)CN)cs3)n2)ccc1C(=O)N(C)C1CCN(C)CC1 [Example 200, 4-[6-(4-{[(3S)-4-amino-3-methylbutyl]oxy}thiophen-2-yl)pyrazin-2-yl]-2-methoxy-N-methyl-N-(1-methylhexahydropyridin-4-yl) benzamide] | 11 to 100 nM
2 | COc1cc(-c2cncc(-c3cc(NC(=O)CC4CCC4)cs3)n2)ccc1O [Example 186] | < 10 nM
3 | COc1cc(-c2cncc(-c3cc(NC(=O)CC4CCC4)cs3)n2)ccc1OCCN1CCN(C2CCN(C)CC2)CC1 [Example 177, 2-cyclobutyl-N-(5-{6-[3-methoxy-4-({2-[4-(1-methylhexahydropyridin-4-yl)piperazin-1-yl]ethyl}oxy)phenyl]pyrazin-2-yl}thiophen-3-yl) acetamide] | 11 to 100 nM
4 | COc1cc(-c2cncc(-c3cc(NC(=O)CC4CCC4)cs3)n2)ccc1OCCN1CCN(C)CC1 [Example 173, 2-cyclobutyl-N-{5-[6-(3-methoxy-4-{[2-(4-methylpiperazin-1-yl)ethyl]oxy}phenyl)pyrazin-2-yl]thiophen-3-yl}acetamide] | 11 to 100 nM
5 | CCCCC(=O)Nc1csc(-c2cncc(-c3ccc(CCO)s3)n2)c1 [Example 218, N-(5-{6-[5-(2-hydroxyethyl)thiophen-2-yl]pyrazin 2-yl}thiophen-3-yl) pentanamide] | 11 to 100 nM
6 | COc1cc(-c2cncc(-c3cc(NC(=O)CC4CC(OCc5ccccc5)C4)cs3)n2)ccc1C(=O)N(C)C1CC2(C1)CN(C)C2 (stereo not shown) [Example 207, 4-(6-(4-(2-(3-(benzyloxy)cyclobutyl)acetylamino)thiophen-2-yl)pyrazin-2-yl)-2-methoxy-N-methyl-N-(2-methyl-2-azaspiro [3.3]heptane-6-yl) benzamide] | 11 to 100 nM
7 | CCCCC(=O)Nc1csc(-c2cncc(-c3ccc4c(c3)OCCN4C(=O)C3CCN(C)CC3)n2)c1 [Example 214, N-[5-(6-{4-[(1-methylhexahydropyridin-4-yl)carbonyl]-3,4-dihydro-2H-benzo [2,1-b] [1,4]oxazinan-7-yl}pyrazine-2-y)thiophene-3-yl] pentanamide] | 11 to 100 nM
8 | COc1cc(-c2cncc(-c3cc(NC(=O)CC4CCC4)cs3)n2)ccc1OCCN1CC2(CN(C)C2)C1 [Example 178, 2-cyclobutyl-N-{5-[6-(3-methoxy-4-{[2-(6-methyl-2,6-diazaspiro [3.3]hept-2-yl)ethyl]oxy}phenyl)pyrazin-2-yl]thiophen-3-yl} acetamide] | 11 to 100 nM

Results, then the molecule that gave them:

Row | IC50 | Structure (SMILES)
9 | > 10000 nM | CCCCCCCCC(=O)Nc1csc(-c2cncc(-c3ccc(C(=O)Nc4nnn[nH]4)c(OC)c3)n2)c1 [Example B19, 2-methoxy-4-(6-(4-nonanamidothiophen-2-yl)pyrazin-2-yl)-N-(1H-tetrazol-5-yl)benzamide]
10 | 1000 to 10000 nM | O=C(Nc1csc(-c2cncc(-c3ccc(F)c(F)c3)n2)c1)C1CCC1 [Example A28, N-(5-(6-(3,4-difluorophenyl)pyrazin-2-yl)thiophen-3-yl)cyclobutanecarboxamide]
11 | 1000 to 10000 nM | CCCCC(=O)Nc1csc(-c2cncc(-c3ccc(C(=O)Nc4nncs4)c(OC)c3)n2)c1 [Example B24, 2-methoxy-4-(6-(4-pentanamidothiophen-2-yl)pyrazin-2-yl)-N-(1,3,4-thiadiazol-2-yl)benzamide]
12 | 101 to 1000 nM | COc1cc(-c2cncc(-c3cc(NC(=O)CC4(C)COC4)cs3)n2)ccc1C(=O)N(C)C1CCN(C)CC1 [Example B82, 2-methoxy-N-methyl-4-(6-(4-(2-(3-methyloxetan-3-yl)acetamido)thiophen-2-yl)pyrazin-2-yl)-N-(1-methylpiperidin-4-yl)benzamide]
13 | 11 to 100 nM | CN1CCC(C(=O)N2CCOc3cc(-c4cncc(-c5cc(NC(=O)CC6CCC6)cs5)n4)ccc32)CC1 [Example E1, 2-cyclobutyl-N-(5-(6-(4-(1-methylpiperidine-4-carbonyl)-3,4-dihydro-2H-benzo[b][1,4]oxazin-7-yl)pyrazin-2-yl)thiophen-3-yl)acetamide]
14 | 101 to 1000 nM | COc1cc(-c2cncc(-c3cc(NC(=O)CC4CCC4)cs3)n2)ccc1S(=O)(=O)C1CCC1 [Example A48, 2-cyclobutyl-N-(5-(6-(4-(cyclobutylsulfonyl)-3-methoxyphenyl)pyrazin-2-yl)thiophen-3-yl)acetamide]
15 | < 10 nM | CCCCC(=O)Nc1csc(-c2cncc(-c3ccc(C(=O)N(C)C4CCN(C5CC5)CC4)c(OC)c3)n2)c1 [Example B69, N-(1-cyclopropylpiperidin-4-yl)-2-methoxy-N-methyl-4-(6-(4-pentanamidothiophen-2-yl)pyrazin-2-yl)benzamide]
16 | 101 to 1000 nM | CCCCC(=O)Nc1csc(-c2cncc(-c3ccc(-c4nc(=O)o[nH]4)c(OC)c3)n2)c1 [Example A39, N-(5-(6-(3-methoxy-4-(5-oxo-2,5-dihydro-1,2,4-oxadiazol-3-yl)phenyl)pyrazin-2-yl)thiophen-3-yl)pentanamide]
17 | < 10 nM | COc1cc(-c2cncc(-c3cc(NC(=O)CC4CCC4)cs3)n2)ccc1C(=O)NO [Example B98, 4-(6-(4-(2-cyclobutylacetamido)thiophen-2-yl)pyrazin-2-yl)-N-hydroxy-2-methoxybenzamide]
18 | 11 to 100 nM | CN1CCC(Cn2cc3ccc(-c4cncc(-c5cc(NC(=O)CC6CCC6)cs5)n4)cc3n2)CC1 [Example A50, 2-cyclobutyl-N-(5-(6-(2-((1-methylpiperidin-4-yl)methyl)-2H-indazol-6-yl)pyrazin-2-yl)thiophen-3-yl)acetamide]
19 | 11 to 100 nM | COc1cc(-c2cncc(-c3cc(NC(=O)CC4CCC4)cs3)n2)ccc1C(=O)Nc1nnnn1C [Example B26, 2-methoxy-4-(6-(4-(2-cyclobutylacetamido)thiophen-2-yl)pyrazin-2-yl)-N-(1-methyl-1H-tetrazol-5-yl)benzamide]
20 | > 10000 nM | COc1ccc(-c2cncc(NC3CCC(N)CC3)n2)cc1OC (stereo not shown) [Example D1, N^1-(6-(3,4-dimethoxyphenyl)pyrazin-2-yl)cyclohexane-1,4-diamine]
21 | 1000 to 10000 nM | COc1ccc(OC)c(-c2cncc(-c3cc(NC(=O)C4CCC4)cs3)n2)c1 [Example A14, N-(5-(6-(2,5-dimethoxyphenyl)pyrazin-2-yl)thiophen-3-yl)cyclobutanecarboxamide]
22 | 1000 to 10000 nM | CCCCC(=O)Nc1csc(-c2cncc(C3CCN(S(C)(=O)=O)CC3)n2)c1 [Example D7, N-(5-(6-(1-(methylsulfonyl)piperidin-4-yl)pyrazin-2-yl)thiophen-3-yl)pentanamide]
23 | 11 to 100 nM | COc1cc(-c2cncc(-c3cc(NC(=O)CC4CCC4)cs3)n2)ccc1C(=O)N(C)C1CC2(C1)CN(C1CC1)C2 [Example B97, 4-(6-(4-(2-cyclobutylacetamido)thiophen-2-yl)pyrazin-2-yl)-N-(2-cyclopropyl-2-azaspiro[3.3]heptan-6-yl)-2-methoxy-N-methylbenzamide]
24 | 101 to 1000 nM | COc1cc(-c2cncc(-c3cc(NC(=O)CC4CC(C(C)=O)C4)cs3)n2)ccc1C(=O)N(C)C1CCN(C)CC1 (stereo not shown) [Example B91, 4-(6-(4-(2-(3-acetylcyclobutyl)acetamido)thiophen-2-yl)pyrazin-2-yl)-2-methoxy-N-methyl-N-(1-methylpiperidin-4-yl)benzamide]
25 | 101 to 1000 nM | COc1ccc(-c2cncc(-c3cc(NC(=O)C(C)C)cs3)n2)cc1OC [Example A4, N-(5-(6-(3,4-dimethoxyphenyl)pyrazin-2-yl)thiophen-3-yl)isobutyramide]
